Key:
A375.S2 cells = assay: Binding and internalization study at 37° C., confocal microscopy; type: cell-based, human; details: 37° C. for 10 min, washed, incubated 1 hour at 37° C.
Protocol: A375.S2 cells were harvested by scraping and then resuspended to obtain individualized cells and rejuvenated for 1 hour, at 37° C. About 1 million cells of each tumor type were counted and distributed into individual centrifugation tubes. The tubes were spun to obtain a cell pellet.
For binding and internalization, the cells were treated with the targeted liposome formulation at 37° C. for 10 min with mild shaking (140 rpm). Cells were treated with the liposome formulations containing either a doxorubicin payload or a fluorescent marker (Dextran Alexa Fluor 488). Treatment was terminated by adding 1 mL of washing media (serum free), vortexing briefly, and centrifuging to recover a cell pellet The cells in the pellet were resuspend in washing media, vigorously shaken for 10 minutes at 37° C. and then centrifuged again (440 rpm). The cell pellet was left in 100 μL of media, an aliquot of 8 μL was taken and placed on a glass slide for observation under a confocal microscope.
Binding and internalization of the targeted liposomes to A375.S2 cells was evaluated after various incubation times of the cells and the liposome formulation.

murine αVβ3/5 integrin = details: cited from earlier work
murine αVβ3/5 integrin, sequence (P43406 31-885 limits assumed): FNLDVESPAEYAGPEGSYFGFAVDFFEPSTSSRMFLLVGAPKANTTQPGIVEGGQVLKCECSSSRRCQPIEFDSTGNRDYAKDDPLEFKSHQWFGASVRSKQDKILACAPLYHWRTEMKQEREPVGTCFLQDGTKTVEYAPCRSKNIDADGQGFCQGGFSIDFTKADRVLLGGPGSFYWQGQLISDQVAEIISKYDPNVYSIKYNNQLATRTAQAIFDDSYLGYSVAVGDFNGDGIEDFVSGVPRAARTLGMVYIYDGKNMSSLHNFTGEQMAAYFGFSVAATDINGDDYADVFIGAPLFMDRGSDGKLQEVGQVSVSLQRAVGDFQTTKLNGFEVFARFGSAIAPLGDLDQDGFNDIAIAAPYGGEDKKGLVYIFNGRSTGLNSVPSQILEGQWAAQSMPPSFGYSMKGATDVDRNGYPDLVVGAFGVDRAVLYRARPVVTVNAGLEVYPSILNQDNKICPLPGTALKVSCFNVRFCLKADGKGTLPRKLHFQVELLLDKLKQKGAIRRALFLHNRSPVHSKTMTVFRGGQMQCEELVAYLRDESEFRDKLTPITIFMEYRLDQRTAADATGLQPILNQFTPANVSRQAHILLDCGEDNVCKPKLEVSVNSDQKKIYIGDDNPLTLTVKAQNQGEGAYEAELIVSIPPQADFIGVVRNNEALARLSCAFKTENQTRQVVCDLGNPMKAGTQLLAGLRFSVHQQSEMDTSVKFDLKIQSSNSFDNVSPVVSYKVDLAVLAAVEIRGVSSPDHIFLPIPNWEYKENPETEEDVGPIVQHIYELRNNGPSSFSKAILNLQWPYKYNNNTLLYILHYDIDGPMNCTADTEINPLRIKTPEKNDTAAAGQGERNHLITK
murine αVβ3/5 integrin, sequence (P43406 887-1044 limits assumed): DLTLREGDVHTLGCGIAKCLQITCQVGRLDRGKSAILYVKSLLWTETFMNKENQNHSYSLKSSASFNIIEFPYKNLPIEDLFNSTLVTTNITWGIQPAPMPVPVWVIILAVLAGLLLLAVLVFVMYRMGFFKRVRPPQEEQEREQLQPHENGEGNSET

| Compound | Binding and internalization (confocal microscopy) (A375.S2 cells) | Binding to murine αVβ3/5 integrin (murine αVβ3/5 integrin) |
| --- | --- | --- |
| COc1cccc2c1C(=O)c1c(O)c3c(c(O)c1C2=O)C[C@@](O)(C(=O)CO)C[C@@H]3O[C@H]1C[C@H](N)[C@H](O)[C@H](C)O1 [free dox, doxorubicin] | drug internalization is evident |  |
| CNTO95: full-length human anti-alpha-V antibody of the IgG1k type, SEQ ID NO: 1 and SEQ ID NO: 2 |  | does not bind |
